This note sets out measurements from patent US20250092064A1, “BENZOTRIAZOLE COMPOUND” (DAIICHI SANKYO COMPANY, LIMITED, priority 2022, published 2025).

In assay [1] the target is binding between Nrf2 and Keap1 (Homo sapiens (Human), UniProt Q14145). As to the kind of experiment: FP assay (in vitro): inhibition of Nrf2-Keap1 binding by fluorescence polarization. The settings on record: GST-fused human Keap1 (325-642) 20 nM, FITC-labeled Nrf2 peptide 10 nM, 2 hr at room temperature.
Assay [2] deals with NQO1 activity in Hepa1c1c7 cells. As to the kind of experiment: NAD(P)H: quinone oxidoreductase-1 (NQO1) enzyme induction assay (in vitro). Type of assay: cell-based, mouse. The settings on record: Mus musculus, Hepa-1c1c7, NQO1 activity with 400 nM test compound as a ratio from the base without compound, about 48 hr. A digest of the protocol:
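Mouse Hepa1c1c7 hepatoma cells treated 48 hr with 400 nM compound (final). NQO1 activity in lysates read by absorbance at 610 nm; value is background-subtracted activity ratio versus untreated cells.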

Each structure is given as a SMILES string. pIC50: −log10 of the molar value.

Sequence of binding between Nrf2 and Keap1 (Q14145 325-624 limits assumed): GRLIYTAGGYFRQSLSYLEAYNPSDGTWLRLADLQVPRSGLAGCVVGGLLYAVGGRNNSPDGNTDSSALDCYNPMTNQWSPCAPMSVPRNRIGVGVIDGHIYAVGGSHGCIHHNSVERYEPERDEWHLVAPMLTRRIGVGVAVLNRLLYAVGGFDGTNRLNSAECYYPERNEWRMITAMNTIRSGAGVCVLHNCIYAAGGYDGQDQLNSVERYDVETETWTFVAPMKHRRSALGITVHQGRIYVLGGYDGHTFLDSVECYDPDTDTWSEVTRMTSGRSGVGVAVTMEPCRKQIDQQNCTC

In assay [1], `CC[C@@H]1CN(Cc2cc(C(CC(=O)O)c3cc(OC)c4c(nnn4C)c3C)cc3ccsc23)S(=O)(=O)c2cc(Cl)cnc2O1` (stereo partly drawn) [Example 50, 3-(7-{[(4R)-8-Chloro-4-ethyl-1,1-dioxido-3,4-dihydro-2H-pyrido[2,3-b][1,4,5]oxathiazepin-2-yl]methyl}-1-benzothiophen-5-yl)-3-(7-methoxy-1,4-dimethyl-1H-benzotriazol-5-yl)propanoic acid] gave a pIC50 of 7.52 to 8.00. For the same compound, in assay [2], the fold induction at 0.4 µM is more than 5.

In turn, `CC[C@@H]1CN(Cc2cc(C(CC(=O)O)c3cc(Cl)c4c(nnn4C)c3C)cc3ccsc23)S(=O)(=O)c2cc(Cl)cnc2O1` (stereo partly drawn) [Example 51, 3-(7-Chloro-1,4-dimethyl-1H-benzotriazol-5-yl)-3-(7-{[(4R)-8-chloro-4-ethyl-1,1-dioxido-3,4-dihydro-2H-pyrido[2,3-b][1,4,5]oxathiazepin-2-yl]methyl}-1-benzothiophen-5-yl)propanoic acid] gave a pIC50 in assay [1] of 7.52 to 8.00. Further, in assay [2], the fold induction at 0.4 µM is 3 to 5.

The compound `CC[C@@H]1CN(Cc2cc(C(CC(=O)O)c3cc(C#N)c4c(nnn4C)c3C)cc3ccsc23)S(=O)(=O)c2cc(Cl)cnc2O1` (stereo partly drawn) [Example 52, 3-(7-{[(4R)-8-Chloro-4-ethyl-1,1-dioxido-3,4-dihydro-2H-pyrido[2,3-b][1,4,5]oxathiazepin-2-yl]methyl}-1-benzothiophen-5-yl)-3-(7-cyano-1,4-dimethyl-1H-benzotriazol-5-yl)propanoic acid] gave a negative logarithm of the IC50 (pIC50) in assay [1] of 7.52 to 8.00. For the same compound, the fold induction at 0.4 µM in assay [2] was more than 5.

As for `CC[C@@H]1CN(Cc2cc(C(CC(=O)O)c3cc(C(F)(F)F)c4c(nnn4C)c3C)cc3ccsc23)S(=O)(=O)c2cc(Cl)cnc2O1` (stereo partly drawn) [Example 53, 3-(7-{[(4R)-8-Chloro-4-ethyl-1,1-dioxido-3,4-dihydro-2H-pyrido[2,3-b][1,4,5]oxathiazepin-2-yl]methyl}-1-benzothiophen-5-yl)-3-[1,4-dimethyl-7-(trifluoromethyl)-1H-benzotriazol-5-yl]propanoic acid], the negative-log IC50 (pIC50) in assay [1] is 7.52 to 8.00. The fold induction at 0.4 µM in assay [2] was more than 5.

`CC[C@@H]1CN(Cc2cc(C(CC(=O)O)c3cc(OC(F)(F)F)c4c(nnn4C)c3C)cc3ccsc23)S(=O)(=O)c2cc(Cl)cnc2O1` (stereo partly drawn) [Example 54, 3-(7-{[(4R)-8-Chloro-4-ethyl-1,1-dioxido-3,4-dihydro-2H-pyrido[2,3-b][1,4,5]oxathiazepin-2-yl]methyl}-1-benzothiophen-5-yl)-3-[1,4-dimethyl-7-(trifluoromethoxy)-1H-benzotriazol-5-yl]propanoic acid]: in assay [1], the pIC50 was 7.52 to 8.00. The fold induction at 0.4 µM in assay [2] is more than 5.

In assay [1], `CC[C@@H]1CN(Cc2cc(C(CC(=O)O)c3cc(OC(F)F)c4c(nnn4C)c3C)cc3ccsc23)S(=O)(=O)c2cc(Cl)cnc2O1` (stereo partly drawn) [Example 55, 3-(7-{[(4R)-8-Chloro-4-ethyl-1,1-dioxido-3,4-dihydro-2H-pyrido[2,3-b][1,4,5]oxathiazepin-2-yl]methyl}-1-benzothiophen-5-yl)-3-[7-(difluoromethoxy)-1,4-dimethyl-1H-benzotriazol-5-yl]propanoic acid] gave a pIC50 of 7.52 to 8.00. The fold induction at 0.4 µM in assay [2] was more than 5.

The compound `CC[C@@H]1CN(Cc2cc(C(CC(=O)O)c3ccc4c(nnn4CC(C)(C)O)c3C)cc3ccsc23)S(=O)(=O)c2cc(Cl)cnc2O1` (stereo partly drawn) [Example 56, 3-(7-{[(4R)-8-Chloro-4-ethyl-1,1-dioxido-3,4-dihydro-2H-pyrido[2,3-b][1,4,5]oxathiazepin-2-yl]methyl}-1-benzothiophen-5-yl)-3-[1-(2-hydroxy-2-methylpropyl)-4-methyl-1H-benzotriazol-5-yl]propanoic acid] showed a pIC50 in assay [1] of 7.52 to 8.00. Further, the fold induction at 0.4 µM in assay [2] was more than 5.

In assay [1], `CC[C@@H]1CN(Cc2cc(C(CC(=O)O)c3ccc4c(nnn4CCCS(C)(=O)=O)c3C)cc3ccsc23)S(=O)(=O)c2cc(Cl)cnc2O1` (stereo partly drawn) [Example 57, 3-(7-{[(4R)-8-Chloro-4-ethyl-1,1-dioxido-3,4-dihydro-2H-pyrido[2,3-b][1,4,5]oxathiazepin-2-yl]methyl}-1-benzothiophen-5-yl)-3-{4-methyl-1-[3-(methylsulfonyl)propyl]-1H-benzotriazol-5-yl}propanoic acid] had a negative logarithm of the IC50 (pIC50) of 7.52 to 8.00. Besides, in assay [2], the fold induction at 0.4 µM was more than 5.

In turn, `CC[C@@H]1CN(Cc2cc(C(CC(=O)O)c3ccc4c(nnn4CCN(C)C)c3C)cc3ccsc23)S(=O)(=O)c2cc(Cl)cnc2O1` (stereo partly drawn) [Example 58, 3-(7-{[(4R)-8-Chloro-4-ethyl-1,1-dioxido-3,4-dihydro-2H-pyrido[2,3-b][1,4,5]oxathiazepin-2-yl]methyl}-1-benzothiophen-5-yl)-3-{1-[2-(dimethylamino)ethyl]-4-methyl-1H-benzotriazol-5-yl}propanoic acid] had a pIC50 in assay [1] of 7.00 to 7.52. Moreover, the fold induction at 0.4 µM in assay [2] is more than 5.

`CC[C@@H]1CN(Cc2cc(C(CC(=O)O)c3cnc4c(nnn4C)c3C)cc3ccsc23)S(=O)(=O)c2cc(Cl)cnc2O1` (stereo partly drawn) [Example 59, 3-(7-{[(4R)-8-Chloro-4-ethyl-1,1-dioxido-3,4-dihydro-2H-pyrido[2,3-b][1,4,5]oxathiazepin-2-yl]methyl}-1-benzothiophen-5-yl)-3-(3,7-dimethyl-3H-[1,2,3]triazolo[4,5-b]pyridin-6-yl)propanoic acid] had a pIC50 in assay [1] of 7.52 to 8.00. Besides, the fold induction at 0.4 µM in assay [2] was more than 5.

In turn, `CC[C@@H]1CN(Cc2cc(C(CC(=O)O)c3ccc4c(nnn4CC(F)(F)F)c3C)cc3ccsc23)S(=O)(=O)c2cc(Cl)cnc2O1` (stereo partly drawn) [Example 60, 3-(7-{[(4R)-8-Chloro-4-ethyl-1,1-dioxido-3,4-dihydro-2H-pyrido[2,3-b][1,4,5]oxathiazepin-2-yl]methyl}-1-benzothiophen-5-yl)-3-[4-methyl-1-(2,2,2-trifluoroethyl)-1H-benzotriazol-5-yl]propanoic acid] showed a pIC50 in assay [1] of 7.52 to 8.00. Besides, the fold induction at 0.4 µM in assay [2] is more than 5.

The compound `CC[C@@H]1CN(Cc2cc(C(CC(=O)O)c3ccc4c(nnn4C)c3C)cc3ccsc23)[C@@H](C)c2ncccc2O1` (stereo partly drawn) [Example 61, 3-(1,4-Dimethyl-1H-benzotriazol-5-yl)-3-(7-{[(2R,5S)-2-ethyl-5-methyl-2,3-dihydropyrido[2,3-f][1,4]oxazepin-4(5H)-yl]methyl}-1-benzothiophen-5-yl)propanoic acid] showed a negative-log IC50 (pIC50) in assay [1] of 7.52 to 8.00. For the same compound, the fold induction at 0.4 µM in assay [2] was more than 5.

In turn, `CC[C@@H]1CN(Cc2cc([C@@H](CC(=O)O)c3ccc4c(nnn4C)c3C)cc3ccsc23)[C@@H](C)c2ncccc2O1` [Example 63, (3R)-3-(1,4-Dimethyl-1H-benzotriazol-5-yl)-3-(7-{[(2R,5S)-2-ethyl-5-methyl-2,3-dihydropyrido[2,3-f][1,4]oxazepin-4(5H)-yl]methyl}-1-benzothiophen-5-yl)propanoic acid] had a negative-log IC50 (pIC50) in assay [1] of 7.52 to 8.00. In addition, the fold induction at 0.4 µM in assay [2] was more than 5.

`CC[C@@H]1CN(Cc2cc([C@H](CC(=O)O)c3cc(Cl)c4c(nnn4C)c3C)cc3ccsc23)[C@@H](C)c2ncccc2O1` [Example 64, (3S)-3-(7-Chloro-1,4-dimethyl-1H-benzotriazol-5-yl)-3-(7-{[(2R,5S)-2-ethyl-5-methyl-2,3-dihydropyrido[2,3-f][1,4]oxazepin-4(5H)-yl]methyl}-1-benzothiophen-5-yl)propanoic acid] showed a pIC50 in assay [1] not below 8.00. In assay [2], the fold induction at 0.4 µM was 3 to 5.

In the case of `CC[C@@H]1CN(Cc2cc([C@@H](CC(=O)O)c3ccc4c(nnn4C)c3C)cc3c2CCC3)[C@@H](C)c2ncccc2O1` [Example 65, (3R)-3-(1,4-Dimethyl-1H-benzotriazol-5-yl)-3-(7-{[(2R,5S)-2-ethyl-5-methyl-2,3-dihydropyrido[2,3-f][1,4]oxazepin-4(5H)-yl]methyl}-2,3-dihydro-1H-inden-5-yl)propanoic acid], the pIC50 in assay [1] is 7.52 to 8.00. Moreover, the fold induction at 0.4 µM in assay [2] was more than 5.

`CC[C@@H]1CN(Cc2cc([C@H](CC(=O)O)c3ccc4c(nnn4C)c3C)cc3c2CCC3)[C@@H](C)c2ncccc2O1` [Example 66, (3S)-3-(1,4-Dimethyl-1H-benzotriazol-5-yl)-3-(7-{[(2R,5S)-2-ethyl-5-methyl-2,3-dihydropyrido[2,3-f][1,4]oxazepin-4(5H)-yl]methyl}-2,3-dihydro-1H-inden-5-yl)propanoic acid]: the pIC50 in assay [1] is 7.52 to 8.00. Also, the fold induction at 0.4 µM in assay [2] is more than 5.

`CC[C@@H]1CN(Cc2cc([C@@H](CC(=O)O)c3cc(C)c4c(nnn4C)c3C)cc3ccsc23)[C@@H](C)c2ncccc2O1` [Example 67, (3R)-3-(7-{[(2R,5S)-2-Ethyl-5-methyl-2,3-dihydropyrido[2,3-f][1,4]oxazepin-4(5H)-yl]methyl}-1-benzothiophen-5-yl)-3-(1,4,7-trimethyl-1H-benzotriazol-5-yl)propanoic acid]: in assay [1], the negative logarithm of the IC50 (pIC50) is not below 8.00. In addition, the fold induction at 0.4 µM in assay [2] is more than 5.

As to `CC[C@@H]1CN(Cc2cc([C@H](CC(=O)O)c3cc(C)c4c(nnn4C)c3C)cc3ccsc23)[C@@H](C)c2ncccc2O1` [Example 68, (3S)-3-(7-{[(2R,5S)-2-Ethyl-5-methyl-2,3-dihydropyrido[2,3-f][1,4]oxazepin-4(5H)-yl]methyl}-1-benzothiophen-5-yl)-3-(1,4,7-trimethyl-1H-benzotriazol-5-yl)propanoic acid], in assay [1], the pIC50 is not below 8.00. The fold induction at 0.4 µM in assay [2] is more than 5.

`CC[C@@H]1CN(Cc2cc([C@H](CC(=O)O)c3cc(C)c4c(nnn4C)c3C)cc3c2CCC3)[C@@H](C)c2ncccc2O1` [Example 69, (3S)-3-(7-{[(2R,5S)-2-Ethyl-5-methyl-2,3-dihydropyrido[2,3-f][1,4]oxazepin-4(5H)-yl]methyl}-2,3-dihydro-1H-inden-5-yl)-3-(1,4,7-trimethyl-1H-benzotriazol-5-yl)propanoic acid]: in assay [1], the negative-log IC50 (pIC50) is not below 8.00. In addition, the fold induction at 0.4 µM in assay [2] fell in the range of 3 to 5.
